Measurements from article PMC5018213 (Journal of medicinal chemistry, 2016).
Read-outs that look alike come from different tables or passages of the source. Each block holds one compound with its values, some of them ahead of it.

Experiments:
[1] = system: IGROV1 ovarian tumor xenografts; assay: In vivo efficacy trial with IGROV1 xenografts in SCID mice; conditions: folate-deficient diet
human GARFTase = biological target: T1, human GARFTase (Homo sapiens, UniProt P22102); assay type: biochemical; conditions: from Ki values, Table 2
T1 sequence (P22102 810-1010 limits assumed): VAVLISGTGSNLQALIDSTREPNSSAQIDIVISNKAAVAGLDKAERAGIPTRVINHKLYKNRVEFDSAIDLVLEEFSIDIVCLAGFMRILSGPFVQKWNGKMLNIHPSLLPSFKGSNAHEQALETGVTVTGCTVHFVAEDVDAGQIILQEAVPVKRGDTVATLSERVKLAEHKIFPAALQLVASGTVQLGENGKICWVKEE

FRα (RT16 CHO cells) = FRα (RT16 CHO cells) (Homo sapiens, UniProt P15328); assay: FR binding assay, [3H]folic acid competition in RT16 cells; conditions: folic acid = 1
Chain of FRα (RT16 CHO cells) (P15328 25-257): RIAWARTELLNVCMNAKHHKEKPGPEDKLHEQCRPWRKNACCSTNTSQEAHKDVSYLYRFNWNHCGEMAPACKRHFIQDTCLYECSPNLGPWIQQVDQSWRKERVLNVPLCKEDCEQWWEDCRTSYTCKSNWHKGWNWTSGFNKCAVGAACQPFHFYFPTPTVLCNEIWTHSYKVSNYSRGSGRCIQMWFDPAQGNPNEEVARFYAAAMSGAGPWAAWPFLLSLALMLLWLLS

FRβ (D4 CHO cells) = FRβ (D4 CHO cells) (Homo sapiens, UniProt P14207); assay: FR binding assay, [3H]folic acid competition in D4 cells; conditions: folic acid = 1
Chain of FRβ (D4 CHO cells) (P14207 17-255): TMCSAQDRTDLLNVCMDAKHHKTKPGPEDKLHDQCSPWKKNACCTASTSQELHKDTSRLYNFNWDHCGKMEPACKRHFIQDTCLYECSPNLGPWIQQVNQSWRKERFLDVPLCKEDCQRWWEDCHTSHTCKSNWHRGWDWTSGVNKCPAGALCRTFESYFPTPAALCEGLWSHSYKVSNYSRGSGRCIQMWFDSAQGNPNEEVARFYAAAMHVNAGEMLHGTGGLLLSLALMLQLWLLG

human PCFT = biological target: T2, human PCFT (Homo sapiens, UniProt Q96NT5); assay: PCFT transport competition, [3H]MTX uptake in R2/PCFT4 CHO cells; assay type: cell-based; conditions: for inhibition at 1 µM / inhibition at 10 µM: pH 5.5, read-out: Inhibition of [3H]MTX uptake; for Ki for PCFT [3H]MTX transport inhibition, fold higher than for PMX: pH 5.5, Dixon analysis
T2 sequence (Q96NT5 1-459): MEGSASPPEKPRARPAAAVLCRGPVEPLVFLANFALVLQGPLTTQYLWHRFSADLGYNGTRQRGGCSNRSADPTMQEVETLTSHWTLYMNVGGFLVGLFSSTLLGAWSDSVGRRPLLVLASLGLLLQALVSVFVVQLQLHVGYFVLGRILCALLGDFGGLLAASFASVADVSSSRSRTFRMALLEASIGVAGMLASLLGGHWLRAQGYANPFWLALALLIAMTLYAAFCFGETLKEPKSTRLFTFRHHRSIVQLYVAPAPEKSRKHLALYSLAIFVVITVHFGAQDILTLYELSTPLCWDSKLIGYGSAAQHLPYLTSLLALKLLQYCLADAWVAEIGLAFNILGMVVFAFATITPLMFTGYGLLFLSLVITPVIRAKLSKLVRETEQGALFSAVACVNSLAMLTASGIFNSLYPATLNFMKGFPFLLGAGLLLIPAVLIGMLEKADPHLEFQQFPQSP

[2] = system: CHO subline engineered to express human RFC (PC43-10); assay: Proliferation assay, RFC-expressing PC43-10 CHO cells; conditions: PC43-10, 96 h, read-out: IC50 PC43-10 (RFC)
[3] = system: KB human tumor cells (express RFC, FRα, and PCFT); assay type: cell-based

Relative binding affinity, % of the affinity for folic acid, FRα (FRα (RT16 CHO cells)): 60–110%
Relative binding affinity, % of the affinity for folic acid, FRβ (FRβ (D4 CHO cells)): 60–110%
SMILES: Nc1nc2[nH]c(CCSc3ccc(C(=O)N[C@@H](CCC(=O)O)C(=O)O)cc3)cc2c(=O)[nH]1 [Compound 9, (4-{[2-(2-amino-4-oxo-4,7-dihydro-3H-pyrrolo[2,3-d]pyrimidin-6-yl)ethyl]thio}benzoyl)-L-glutamic acid]

inhibition at 1 µM (human PCFT): 30 to 60%
inhibition at 10 µM (human PCFT): 80 to 90%
SMILES: Nc1nc2[nH]c(CCCc3ccc(C(=O)N[C@@H](CCC(=O)O)C(=O)O)cc3)cc2c(=O)[nH]1 [Compound 1]
IC50 [2]: 649 nM

Improvement in GARFTase inhibitory potency over C (1) (human GARFTase): approximately 3 fold
Relative binding affinity, % of the affinity for folic acid, FRα (FRα (RT16 CHO cells)): 60–110%
Ki for PCFT [3H]MTX transport inhibition, fold higher than for PMX (human PCFT): ~ 7 fold
Relative binding affinity, % of the affinity for folic acid, FRβ (FRβ (D4 CHO cells)): 60–110%
SMILES: Nc1nc2[nH]c(CCOc3ccc(C(=O)N[C@@H](CCC(=O)O)C(=O)O)cc3)cc2c(=O)[nH]1 [Compound 8, {4-[2-(2-amino-4-oxo-4,7-dihydro-3H-pyrrolo[2,3-d]pyrimidin-6-yl)ethoxy]benzoyl}-L-glutamic acid]

Continued, compound first:

SMILES: Nc1nc2[nH]c(CCNc3ccc(C(=O)N[C@@H](CCC(=O)O)C(=O)O)cc3)cc2c(=O)[nH]1 [Compound 4, (4-{[2-(2-Amino-4-oxo-4,7-dihydro-3H-pyrrolo[2,3-d]pyrimidin-6-yl)ethyl]amino}benzoyl)-L-glutamic acid]
T-C (tumor growth delay) ([1]; 384 mg/kg total dose): 9 days
log10 kill ([1]; 384 mg/kg total dose): 1.4
Highest non-toxic total dose ([1]; Q3dx4 iv): 600 mg/kg
Body weight loss (nadir) ([1]; during treatment, reversible): 17.0–17.3%
Improvement in GARFTase inhibitory potency over C (1) (human GARFTase): approximately 3 fold
Relative binding affinity, % of the affinity for folic acid, FRα (FRα (RT16 CHO cells)): 60–110%
Relative binding affinity, % of the affinity for folic acid, FRβ (FRβ (D4 CHO cells)): 60–110%

SMILES: CC(=O)N(CCc1cc2c(=O)[nH]c(N)nc2[nH]1)c1ccc(C(=O)N[C@@H](CCC(=O)O)C(=O)O)cc1 [Compound 6, (4-{N-[2-(2-amino-4-oxo-4,7-dihydro-3H-pyrrolo[2,3-d]pyrimidin-6-yl)ethyl]acetamido}benzoyl)-L-glutamic acid]
Ki for PCFT [3H]MTX transport inhibition, fold higher than for PMX (human PCFT): ~ 18 fold

SMILES: Nc1nc2[nH]cc(CCc3ccc(C(=O)N[C@@H](CCC(=O)O)C(=O)O)cc3)c2c(=O)[nH]1 [PMX, pemetrexed]
inhibition at 1 µM (human PCFT): ≥ 90%
inhibition at 10 µM (human PCFT): ≥ 90%

SMILES: Nc1nc2[nH]c(CCCc3ccc(C(=O)N[C@@H](CCC(=O)O)C(=O)O)s3)cc2c(=O)[nH]1 [Compound 3]
IC50 [2]: 101 nM
IC50 ([3]; read-out: IC50 KB): 0.26 nM
IC50 ([3]; read-out: IC50 KB (+FA)): 101 nM
